Patent US6900224B2, “Antimicrobial quinolones, their compositions and uses” (The Procter & Gamble Company, priority 2002, dated 2005)

Assays:
[1] = test system: Escherichia coli; assay: treatment of human subject with urinary tract infection, enteric coated oral tablets; format: in vivo; details: two enteric coated tablets (350 mg each) orally every 8 hours for 4 days
Text: An enteric coated antimicrobial composition for oral administration, according to this invention, is made comprising the following core tablet:
The components are admixed into a bulk mixture. Compressed tablets are formed, using tabletting methods known in the art. The tablet is then coated with a suspension of methacrylic acid/methacrylic acid ester polymer in isopropanol/acetone. A human subject, having a urinary tract infection with Escherichia coli present, is orally administered two of the tablets, every 8 hours, for 4 days.

[2] = test system: Streptococcus pneumoniae; details: human, lower respiratory tract infection with Streptococcus pneumoniae; 30 mg/mL suspension, approx. 2.0 mL intramuscular twice daily for approx. 14 days; after 4 days
Description: An antimicrobial composition for parenteral administration, according to this invention, is made comprising:
The above ingredients are mixed, forming a suspension. Approximately 2.0 mL of the suspension is systemically administered, via intramuscular injection, to a human subject suffering from a lower respiratory tract infection, with Streptococcus pneumoniae present. This dosage is repeated twice daily, for approximately 14 days.

[3] = reported side effect; cited from earlier work

In the case of “7-[7-amino-8R-methyl-5-azaspiro[2.5]-octanyl]-1-cyclopropyl-1,4-dihydro-6-fluoro-8-methoxy-4-oxo-3-quinolinecarboxylic acid hydrochloride [Example 5]”, the “symptoms of the disease / eradication of the pathogen” value [1] is reported as “Symptoms of the disease then subside”.
For `CC[C@@H]1[C@H](N)CN(c2nc3c(cc2F)c(=O)c(C(=O)O)cn3C2CC2)C[C@@H]1C.Cl` [Example 12, 7-[3S-amino-4S-ethyl-5R-methyl-piperidinyl]-1-Cyclopropyl-1,4-dihydro-6-fluoro-4-oxo-1,8-naphthyridine-3-carboxylic acid hydrochloride], the “symptoms of the disease / eradication of the pathogen” value [2] was “symptoms of the disease subside”.
In the case of `COc1c(N2CCNC(C)C2)c(F)cc2c(=O)c(C(=O)O)cn(C3CC3)c12` (racemic) [gatifloxacin, (±)-1-cyclopropyl-6-fluoro-1,4-dihydro-8-methoxy-7-(3-methyl-1-piperazinyl)-4-oxo-3-quinoline carboxylic acid], the clastogenicity [3] is given as “exhibit clastogenicity”.
